Experimental findings from US9914730B2, “Azaquinazoline inhibitors of Atypical protein Kinase C” (Ignyta, Inc., priority 2012, dated 2018) are described below.

In general, IC50 refers to the point on the concentration scale where inhibition reaches its midpoint.

Structures are written as SMILES.

The test concerns the target T1, full-length human PKCι (Homo sapiens, UniProt P41743).
T1 construct: Recombinant, full-length human PKCι expressed in Sf21 insect cells is also commercially available; purchased; host or cells: Sf21 insect cells
T1 sequence (P41743 1-596): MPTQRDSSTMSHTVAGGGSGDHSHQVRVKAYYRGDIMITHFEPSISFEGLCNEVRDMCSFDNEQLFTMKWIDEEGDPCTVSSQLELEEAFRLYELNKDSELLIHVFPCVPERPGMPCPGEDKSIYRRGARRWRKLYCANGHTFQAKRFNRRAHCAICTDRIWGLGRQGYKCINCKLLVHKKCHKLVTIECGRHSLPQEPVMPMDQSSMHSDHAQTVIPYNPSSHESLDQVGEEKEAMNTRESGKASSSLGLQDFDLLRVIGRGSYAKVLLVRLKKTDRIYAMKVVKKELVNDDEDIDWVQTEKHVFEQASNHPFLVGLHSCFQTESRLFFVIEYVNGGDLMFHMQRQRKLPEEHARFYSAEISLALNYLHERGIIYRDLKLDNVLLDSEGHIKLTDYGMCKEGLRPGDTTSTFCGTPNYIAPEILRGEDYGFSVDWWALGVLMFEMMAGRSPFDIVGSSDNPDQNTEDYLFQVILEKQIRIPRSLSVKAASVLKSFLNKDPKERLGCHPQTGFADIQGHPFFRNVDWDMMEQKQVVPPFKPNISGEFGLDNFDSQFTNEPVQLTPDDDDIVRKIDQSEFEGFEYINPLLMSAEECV
As to the kind of experiment: PKCι IC50 IMAP assay, full-length PKCι at 150 μM ATP. Type of test: biochemical. Particulars: read-out: IC50 in IMAP assay against full length PKCi at 150 μM ATP. An outline of the steps: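 Full-length human PKCι from Sf21 cells, typically 15 pM, with 100 nM 5FAM-PKCε pseudosubstrate peptide and 150 μM ATP (5× apparent KM), 60 min at room temperature, 4% DMSO. IMAP fluorescence polarisation read-out; inhibition normalised to no-compound and no-enzyme controls, IC50 from curve fit.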
On to `CC[C@H]1CN(c2nc(-c3ccncc3)nc3cnccc23)CCN1` [Example 61, (3S)-3-ethyl-1-[2-(pyridin-4-yl)-pyrido[3,4-d]-pyrimidin-4-yl]-piperazine], for which the IC50 fell in the range of 1 to 10 µM.
Turning to `CC(C)[C@H]1CN(c2nc(-c3ccncc3)nc3cnccc23)CCN1` [Example 62, (3S)-3-(propan-2-yl)-1-[2-(pyridin-4-yl)-pyrido[3,4-d]-pyrimidin-4-yl]-piperazine], the IC50 was in the range of 1 to 10 µM.
As for `COc1cncc2nc(-c3ccncc3F)nc(N3CCNCC3)c12` [Example 63, 1-[2-(3-fluoropyridin-4-yl)-5-methoxypyrido-[3,4-d]pyrimidin-4-yl]piperazine], the half-maximal inhibitory concentration (IC50) was 0.1 to 1 µM.
`c1cc(-c2nc(N3CCN4CCC[C@@H]4C3)c3ccncc3n2)ccn1` [Example 64, 4-{4-[(8aR)-octahydropyrrolo-[1,2-a]piperazin-2-yl]pyrido[3,4-d]-pyrimidin-2-yl}-pyridine]: the IC50 lay in the range of 10 to 40 µM.
Consider `Fc1cnccc1-c1nc(N2CCNCC2)c2ccncc2n1` [Example 65, 1-[2-(3-fluoropyridin-4-yl)pyrido[3,4-d]-pyrimidin-4-yl]-piperazine], for which the IC50 fell in the range of 10 to 40 µM.
Take `Fc1cnccc1-c1nc(N2CCNC(C(F)(F)F)C2)c2ccncc2n1` (stereo not drawn) [Example 66, 1-[2-(3-fluoropyridin-4-yl)pyrido[3,4-d]-pyrimidin-4-yl]-3-(trifluoromethyl)-piperazine]: the IC50 lay in the range of 10 to 40 µM.
`c1cc(-c2nc(N3CCC4NCC[C@H]4C3)c3ccncc3n2)ccn1` (stereo partly drawn) [Example 67, 4-{4-[(3aS)-octahydro-1H-pyrrolo[3,2-c]-pyridin-5-yl]-pyrido[3,4-d]-pyrimidin-2-yl}-pyridine]: the IC50 fell in the range of 10 to 40 µM.
With `Clc1nccc2c(N3CCN[C@@H](Cc4ccccc4)C3)nc(-c3ccncc3)nc12` [Example 68, (3S)-3-benzyl-1-[8-chloro-2-(pyridin-4-yl)pyrido[3,4-d]-pyrimidin-4-yl]-piperazine], the IC50 is 0.1 to 1 µM.
`c1ccc(C2CN(c3nc(-c4ccncc4)nc4cnccc34)CCN2)cc1` (stereo not drawn) [Example 69, 3-phenyl-1-[2-(pyridin-4-yl)-pyrido[3,4-d]-pyrimidin-4-yl]-piperazine]: the 50% inhibitory concentration (IC50) lay within 10 to 40 µM.
The figure for `COc1cncc2nc(-c3ccncc3)nc(N3CCOCC3)c12` [Example 70, 4-[5-methoxy-2-(pyridin-4-yl)-pyrido[3,4-d]-pyrimidin-4-yl]-morpholine] is 1 to 10 µM; for `C#CC1CN(c2nc(-c3ccncc3)nc3cnccc23)CCN1` (stereo not drawn) [Example 71, 3-ethynyl-1-[2-(pyridin-4-yl)-pyrido[3,4-d]-pyrimidin-4-yl]-piperazine] it is 1 to 10 µM.
For the compound `COc1cncc2nc(-c3ccncc3)nc(N3CCOC(Cc4ccccc4)C3)c12` (stereo not drawn) [Example 72, 2-benzyl-4-[5-methoxy-2-(pyridin-4-yl)pyrido[3,4-d]-pyrimidin-4-yl]-morpholine], the IC50 was 1 to 10 µM.
Regarding `OCC1CN(c2nc(-c3ccncc3)nc3c(Cl)nccc23)C1` [Example 73, {1-[8-chloro-2-(pyridin-4-yl)-pyrido[3,4-d]-pyrimidin-4-yl]-azetidin-3-yl}-methanol], the IC50 fell in the range of 10 to 40 µM.
The figure for `COc1cncc2nc(-c3ccncc3)nc(N3CCN[C@@H](C(F)c4ccccc4)C3)c12` (stereo partly drawn) [Example 74, (3R)-3-[fluoro(phenyl)-methyl]-1-[5-methoxy-2-(pyridin-4-yl)-pyrido[3,4-d]-pyrimidin-4-yl]-piperazine] is less than 0.1 µM; for `OC1CCN(c2nc(-c3ccncc3)nc3c(Cl)nccc23)CC1` [Example 75, 1-[8-chloro-2-(pyridin-4-yl)-pyrido[3,4-d]-pyrimidin-4-yl]-piperidin-4-ol] it is 1 to 10 µM.
For the compound `COc1cncc2nc(-c3ccncc3)nc(N3CCN[C@@H](C(F)c4ccccc4)C3)c12` (stereo partly drawn) [Example 76, (3R)-3-[fluoro(phenyl)-methyl]-1-[5-methoxy-2-(pyridin-4-yl)-pyrido[3,4-d]-pyrimidin-4-yl]-piperazine], the concentration for half-maximal inhibition (IC50) is less than 0.1 µM.
Regarding `O=CN[C@H](CNc1nc(-c2ccncc2)nc2cnccc12)Cc1ccccc1` [Example 78, N—[(S)-1-Benzyl-2-(2-pyridin-4-yl-pyrido[3,4-d]pyrimidin-4-ylamino)-ethyl]-formamide], the IC50 lay within 1 to 10 µM.
With `CC(=O)N[C@H](CNc1nc(-c2ccncc2)nc2cnccc12)Cc1ccccc1` [Example 79, N—[(S)-1-Benzyl-2-(2-pyridin-4-yl-pyrido[3,4-d]pyrimidin-4-ylamino)-ethyl]-acetamide], the IC50 fell in the range of 10 to 40 µM.
The figure for `CN[C@H](CNc1nc(-c2ccncc2)nc2cnccc12)Cc1ccccc1` [Example 80, methyl[(2S)-1-phenyl-3-{[2-(pyridin-4-yl)pyrido[3,4-d]pyrimidin-4-yl]amino}propan-2-yl]amine] is 0.1 to 1 µM.
Take `COc1cncc2nc(-c3ccncc3)nc(N3CCN(C)[C@@H](Cc4ccccc4)C3)c12` [Example 81, (2S)-2-benzyl-4-[5-methoxy-2-(pyridin-4-yl)pyrido[3,4-d]pyrimidin-4-yl]-1-methylpiperazine; formic acid]: the half-inhibitory concentration (IC50) lay in the range of 0.1 to 1 µM.
The figure for `NC(=O)CN[C@H](CNc1nc(-c2ccncc2)nc2cnccc12)Cc1ccccc1` [Example 82, 2-{[(2S)-1-phenyl-3-{[2-(pyridin-4-yl)pyrido[3,4-d]pyrimidin-4-yl]amino}propan-2-yl]amino}acetamide] is 1 to 10 µM; for `CS(=O)(=O)N[C@H](CNc1nc(-c2ccncc2)nc2cnccc12)Cc1ccccc1` [Example 83, N-(1-phenyl-3-{[2-(pyridin-4-yl)pyrido[3,4-d]pyrimidin-4-yl]amino}propan-2-yl)methanesulfonamide] it is 10 to 40 µM; for `NC(=O)N[C@H](CNc1nc(-c2ccncc2)nc2cnccc12)Cc1ccccc1` [Example 84, (1-phenyl-3-{[2-(pyridin-4-yl)pyrido[3,4-d]pyrimidin-4-yl]amino}propan-2-yl)urea] it is 10 to 40 µM.
The figure for `CCNC(=O)N[C@H](CNc1nc(-c2ccncc2)nc2cnccc12)Cc1ccccc1` [Example 85, 3-ethyl-1-(1-phenyl-3-{[2-(pyridin-4-yl)pyrido[3,4-d]pyrimidin-4-yl]amino}propan-2-yl)urea] is 10 to 40 µM.
With `COc1cncc2nc(-c3ccncc3)nc(N3CCN4C(=O)OC[C@H]4C3)c12` [Example 86, (3aR)-5-[5-methoxy-2-(pyridin-4-yl)pyrido[3,4-d]pyrimidin-4-yl]-hexahydro-1H-[1,3]oxazolo[3,4-a]piperazin-1-one], the concentration for half-maximal inhibition (IC50) fell in the range of 1 to 10 µM.
For the compound `COc1cncc2nc(-c3ccncc3)nc(N3CCN(CC#N)CC3)c12` [Example 87, 2-{4-[5-methoxy-2-(pyridin-4-yl)pyrido[3,4-d]pyrimidin-4-yl]piperazin-1-yl}acetonitrile], the IC50 was in the range of 10 to 40 µM.
With `CS(=O)(=O)Nc1cccc(-c2nccc3c(NC[C@@H](N)Cc4ccccc4)nc(-c4ccncc4)nc23)c1` [Example 88, N-{3-[4-((S)-2-Amino-3-phenyl-propylamino)-2-pyridin-4-yl-pyrido[3,4-d]pyrimidin-8-yl]-phenyl}-methanesulfonamide], the IC50 lay within 0.1 to 1 µM.
Take `N[C@H](CNc1nc(-c2ccncc2)nc2c(-c3ccn[nH]3)nccc12)Cc1ccccc1` [Example 89, N-[(2S)-2-amino-3-phenylpropyl]-8-(1H-pyrazol-5-yl)-2-(pyridin-4-yl)pyrido[3,4-d]-pyrimidin-4-amine]: the IC50 was less than 0.1 µM.
In the case of `N[C@H](CNc1nc(-c2ccncc2)nc2c(-c3ccccc3)nccc12)Cc1ccccc1` [Example 90, N-[(2S)-2-amino-3-phenylpropyl]-8-phenyl-2-(pyridin-4-yl)pyrido[3,4-d]-pyrimidin-4-amine], the IC50 fell in the range of 0.1 to 1 µM.
On to `N[C@H](CNc1nc(-c2ccncc2)nc2c(-c3ccc(O)cc3)nccc12)Cc1ccccc1` [Example 91, 4-(4-{[(2S)-2-amino-3-phenylpropyl]-amino}-2-(pyridin-4-yl)pyrido[3,4-d]-pyrimidin-8-yl)phenol], for which the IC50 was in the range of 0.1 to 1 µM.
With `N[C@H](CNc1nc(-c2ccncc2)nc2c(-c3cccc(O)c3)nccc12)Cc1ccccc1` [Example 92, 3-(4-{[(2S)-2-amino-3-phenylpropyl]-amino}-2-(pyridin-4-yl)-pyrido[3,4-d]-pyrimidin-8-yl)phenol], the concentration for half-maximal inhibition (IC50) is 1 to 10 µM.
Regarding `COc1ccccc1-c1nccc2c(NC[C@@H](N)Cc3ccccc3)nc(-c3ccncc3)nc12` [Example 93, N-[(2S)-2-amino-3-phenylpropyl]-8-(2-methoxy-phenyl)-2-(pyridin-4-yl)-pyrido[3,4-d]-pyrimidin-4-amine], the IC50 lay within 0.1 to 1 µM.
With `COc1cccc(-c2nccc3c(NC[C@@H](N)Cc4ccccc4)nc(-c4ccncc4)nc23)c1` [Example 94, N-[(2S)-2-amino-3-phenylpropyl]-8-(3-methoxy-phenyl)-2-(pyridin-4-yl)-pyrido[3,4-d]-pyrimidin-4-amine] the figure was 0.1 to 1 µM.
